Our source for the Kd values is ChEMBL document CHEMBL1144853, “Arginine binding motifs: design and synthesis of galactose-derived arginine tweezers as galectin-3 inhibitors” (J Med Chem, 2008).

Structures are written as SMILES. pKd: −log10 of the molar value.

The target in this assay is Galectin-3 (Homo sapiens, UniProt P17931). In words: Binding affinity to human galectin 3 by Fluorescence polarization assay. On the technique in general: Polarisation of emitted light reports the rotation of a fluorescent probe.
Galectin-3, sequence (P17931 whole entry): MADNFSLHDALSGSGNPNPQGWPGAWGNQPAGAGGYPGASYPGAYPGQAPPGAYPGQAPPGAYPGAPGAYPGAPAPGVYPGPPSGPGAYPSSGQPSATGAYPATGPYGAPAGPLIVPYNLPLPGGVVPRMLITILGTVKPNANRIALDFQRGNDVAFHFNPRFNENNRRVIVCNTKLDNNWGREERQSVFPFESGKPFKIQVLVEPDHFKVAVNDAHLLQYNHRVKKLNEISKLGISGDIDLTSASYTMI
Broadly, the pKd is −log10 of the Kd, conventionally taken in molar units. `CS[C@@H]1O[C@H](CO)[C@H](O)[C@H](O)[C@H]1OS(=O)(=O)O`: the pKd was 2.55.

`CS[C@@H]1O[C@H](CO)[C@H](O)[C@H](NC(=O)c2ccc(C)cc2)[C@H]1OP(=O)(O)OCc1ccccc1` showed a pKd of 3.92. The molecule `CS[C@@H]1O[C@H](CO)[C@H](O)[C@H](NC(=O)c2ccc(C)cc2)[C@H]1OP(=O)(O)O` had a negative-log Kd (pKd) of 3.60.

`CS[C@@H]1O[C@H](CO)[C@H](O)[C@H](NC(=O)c2ccc(C)cc2)[C@H]1O[PH](=O)O` gave a pKd of 3.82. `CS[C@@H]1O[C@H](CO)[C@H](O)[C@H](NC(=O)c2ccc(C)cc2)[C@H]1OS(=O)(=O)O` had a pKd of 4.06. `CS[C@@H]1O[C@H](CO)[C@H](O)[C@H](NC(=O)c2ccc(C)cc2)[C@H]1OC(=O)c1ccccc1` had a pKd of 3.42. The molecule `CS[C@@H]1O[C@H](CO)[C@H](O)[C@H](NC(=O)c2ccc(C)cc2)[C@H]1O` gave a negative-log Kd (pKd) of 3.66. This pKd lies 0.24 log units higher than the previous one. In turn, `CS[C@@H]1O[C@H](CO)[C@H](O)[C@H](O)[C@H]1O` showed a pKd of 2.23. With `CS[C@@H]1O[C@H](CO)[C@H](O)[C@H](NC(=O)c2ccc(C)cc2)[C@H]1OC(C)=O`, the pKd is 3.62.
